# Square brackets hold non-standard residues; d marks the D form. Primed or numbered codes have the meaning given here. Ends that are not written are not given here. PEG12′ = not defined here; Nle = CCCC[C@H](N)C(=O)O
# Assays:
# [1] = test system: established lung fibrosis induced by bleomycin in male C57BL/6 mice; assay: Therapeutic mouse model of idiopathic pulmonary fibrosis, peptide combined with nintedanib (Example 1); assay type: in vivo; conditions: peptide 5 mg/kg/day IP; for Mean Pro-inflammatory Cytokine Level IFNγ / Mean Pro-inflammatory Cytokine Level IL-1β / Mean Pro-inflammatory Cytokine Level IL-6 / Mean Pro-inflammatory Cytokine Level KC/GRO / Mean Pro-inflammatory Cytokine Level MCP-1 / Mean Pro-inflammatory Cytokine Level MIP-1α / Mean Pro-inflammatory Cytokine Level TNFα: BALF, MSD; for Mean Pro-inflammatory Cytokine Level IFNγ / Mean Pro-inflammatory Cytokine Level IL-1β / Mean Pro-inflammatory Cytokine Level IL-6 / Mean Pro-inflammatory Cytokine Level KC/GRO / Mean Pro-inflammatory Cytokine Level MCP-1 / Mean Pro-inflammatory Cytokine Level MIP-1α / Mean Pro-inflammatory Cytokine Level TNFα / Mean (SEM) Number of Lymphocytes in BALF / Mean (SEM) Number of Macrophages in BALF / Mean (SEM) Number of Neutrophils in BALF: Day 21, nintedanib 60 mg/kg/day PO; for Mean (SEM) Normalized Lung Weight / Mean (SEM) Ashcroft Score / Mean (SEM) Collagen Deposition Score in Lung Tissue / Mean (SEM) Soluble Collagen Content in BALF: Day 21 after 14 days of daily treatment, nintedanib 60 mg/kg/day PO; for Mean (SEM) Ashcroft Score: H&E; for Mean (SEM) Collagen Deposition Score in Lung Tissue: Masson's Trichrome; for Mean (SEM) Soluble Collagen Content in BALF: Sircol assay
# Method: The effect of combining the peptides of Formula I with a second antifibrotic drug on the progression of established lung fibrosis were assessed by monitoring lung fibrosis, lung weight, inflammatory cells in bronchoalveolar lavage fluid (BALF), soluble collagen in BALF, cytokine secretion, and body weight change in a therapeutic mouse model of idiopathic pulmonary fibrosis. Lung fibrosis was induced in lungs of male C57BL/6 mice between the ages of 6 to 8 weeks by nasophayngeal administration of bleomycin (1.5U/kg using bleomycin clinical formulation diluted in PBS). A control group of animals were administered saline by the nasopharyngeal route (no-bleomycin control group). After one week, bleomycin-treated animals were randomized to treatment groups (N=10 per group) by body weight and treated daily with vehicle control, nintedanib (60 mg/kg/day PO), peptide (5 mg/kg/day by intraperitoneal injection), or the combination of nintedanib (60 mg/kg/day PO) and peptide (5 mg/kg/day by intraperitoneal injection). After 14 days of treatment (Day 21), lungs were removed and weighed. The post-caval lobe was separated and snap frozen. The lungs were flushed with Hanks Buffer and bronchoalveolar lavage fluid (BALF) was harvested from each animal Differential cell counts in BALF were obtained. Levels of pro-inflammatory cytokines in BALF were determined using a meso scale discovery (MSD) system. Slides were prepared from the remaining BALF leukocytes, fixed and stained with May Geimsa stain and the differential counts were recorded manually. BALF was evaluated for soluble collagen using a Sircol assay. Lungs were fixed in 10% neutral buffered formalin (NBF) for histopathological analysis. Fibrosis was assessed by histopathological analysis of H&E stained mouse lungs using an Ashcroft scoring system. Collagen deposition in lung tissue was assessed by histopathological analysis of Masson's Trichrome stained mouse lungs using a standard scoring system for severity.
# [2] = test system: established lung fibrosis induced by bleomycin in male C57BL/6 mice; assay: Therapeutic mouse model of idiopathic pulmonary fibrosis, peptides alone (Example 2); assay type: in vivo
# Method: The effect of the peptides on the progression of established lung fibrosis were assessed by monitoring lung fibrosis, lung weight, inflammatory cells in bronchoalveolar lavage fluid (BALF), soluble collagen in BALF, cytokine secretion in BALF, and body weight change in a therapeutic mouse model of idiopathic pulmonary fibrosis. Lung fibrosis was induced in lungs of male C57BL/6 mice between the ages of 6 to 8 weeks by nasophayngeal administration of bleomycin (1.5 U/kg using bleomycin clinical formulation diluted in PBS). A control group of animals were administered saline by the nasopharyngeal route (no-bleomycin control group). After one week, bleomycin-treated animals were randomized to treatment groups (N=10 per group) by body weight and treated daily with vehicle control, nintedanib positive control (60 mg/kg/day PO) or peptide (5 or 15 mg/kg/day by intraperitoneal injection). After 14 days of treatment (Day 21), lungs were removed and weighed. The post-caval lobe was separated and snap frozen. The lungs were flushed with Hanks Buffer and bronchoalveolar lavage fluid (BALF) was harvested from each animal Total BALF leukocyte were counted. Slides were prepared from the remaining BALF leukocytes, fixed and stained with May Geimsa stain and the differential counts were recorded manually. BALF was evaluated for soluble collagen using a Sircol assay. Lungs were fixed in 10% neutral buffered formalin (NBF) for histopathological analysis. Fibrosis was assessed by histopathological analysis of H&E stained mouse lungs using an Ashcroft scoring system. Collagen deposition in lung tissue was assessed by histopathological analysis of Masson's Trichrome stained mouse lungs using a standard scoring system for severity.
Compound,Mean Pro-inflammatory Cytokine Level IFNγ [1] [pg/mL],Mean Pro-inflammatory Cytokine Level IL-1β [1] [pg/mL],Mean Pro-inflammatory Cytokine Level IL-6 [1] [pg/mL],Mean Pro-inflammatory Cytokine Level KC/GRO [1] [pg/mL],Mean Pro-inflammatory Cytokine Level MCP-1 [1] [pg/mL],Mean Pro-inflammatory Cytokine Level MIP-1α [1] [pg/mL],Mean Pro-inflammatory Cytokine Level TNFα [1] [pg/mL],Mean (SEM) Number of Lymphocytes in BALF [1],Mean (SEM) Number of Macrophages in BALF [1],Mean (SEM) Number of Neutrophils in BALF [1],Mean (SEM) Normalized Lung Weight [1],Mean (SEM) Ashcroft Score [1],Mean (SEM) Collagen Deposition Score in Lung Tissue [1],"Mean (SEM) Ashcroft Score ([2]; Day 21, 15 mg/kg/day IP)","Mean (SEM) Collagen Content in BALF ([2]; Day 21, 15 mg/kg/day IP)","Mean (SEM) Collagen Deposition Score in Lung Tissue ([2]; Day 21, 15 mg/kg/day IP)","Mean (SEM) Normalized Lung Weight ([2]; Day 21, 15 mg/kg/day IP)","Mean (SEM) Number of Lymphocytes in BALF ([2]; Day 21, 15 mg/kg/day IP)","Mean (SEM) Number of Macrophages in BALF ([2]; Day 21, 15 mg/kg/day IP)","Mean (SEM) Number of Neutrophils in BALF ([2]; Day 21, 15 mg/kg/day IP)",other results
"COC(=O)c1ccc2c(c1)NC(=O)/C2=C(\Nc1ccc(N(C)C(=O)CN2CCN(C)CC2)cc1)c1ccccc1 [Nintedanib, nintedanib, reference compound]",0.019,0.50,384,29.3,35.8,1.05,2.76,18700 (5200),49200 (6450),3040 (1370),1.49 (0.17),2.82 (0.39),2.22 (0.43),–,–,–,–,–,–,–,"Mean (SEM) Soluble Collagen Content in BALF [1]: 0.048 (0.005) mg/mL; Mean (SEM) Ashcroft Score ([2]; Day 21, 60 mg/kg/day PO): 2.35 (0.38); Mean (SEM) Collagen Content in BALF ([2]; Day 21, 60 mg/kg/day PO): 0.061 (0.011) mg/mL; Mean (SEM) Collagen Deposition Score in Lung Tissue ([2]; Day 21, 60 mg/kg/day PO): 2.20 (0.36); Mean (SEM) Normalized Lung Weight ([2]; Day 21, 60 mg/kg/day PO): 1.16 (0.07); Mean (SEM) Number of Lymphocytes in BALF ([2]; Day 21, 60 mg/kg/day PO): 1180 (631); Mean (SEM) Number of Macrophages in BALF ([2]; Day 21, 60 mg/kg/day PO): 5030 (823); Mean (SEM) Number of Neutrophils in BALF ([2]; Day 21, 60 mg/kg/day PO): 201 (77)"
"RVIR(Nle)CLGVGLLGDL(dA)GK{PEG12} (RVIR[Nle]CLGVGLLGDL[dA]GK(PEG12′); also: homodimer, disulfide at Cys6) [SEQ ID NO: 32]",0.020,0.07,269,21.5,29.7,0.95,3.05,28600 (5480),86600 (7070),5850 (2220),1.57 (0.20),3.12 (0.45),2.56 (0.48),2.26 (0.35),0.091 (0.016) mg/mL,2.10 (0.35),1.20 (0.05),1270 (584),5030 (974),96 (64),"Mean (SEM) Soluble Collagen Content in BALF [1]: 0.058 (0.005) mg/mL; Mean (SEM) Ashcroft Score ([2]; Day 21, 5 mg/kg/day IP): 2.26 (0.27); Mean (SEM) Collagen Content in BALF ([2]; Day 21, 5 mg/kg/day IP): 0.074 (0.019) mg/mL; Mean (SEM) Collagen Deposition Score in Lung Tissue ([2]; Day 21, 5 mg/kg/day IP): 2.20 (0.25); Mean (SEM) Normalized Lung Weight ([2]; Day 21, 5 mg/kg/day IP): 1.17 (0.03); Mean (SEM) Number of Lymphocytes in BALF ([2]; Day 21, 5 mg/kg/day IP): 946 (579); Mean (SEM) Number of Macrophages in BALF ([2]; Day 21, 5 mg/kg/day IP): 5530 (1090); Mean (SEM) Number of Neutrophils in BALF ([2]; Day 21, 5 mg/kg/day IP): 61 (61)"
RVIRACLGVGLLGDL(dA)GK{PEG12} (RVIRACLGVGLLGDL[dA]GK(PEG12′); also: homodimer) [SEQ ID NO: 30],0.037,0.03,64.6,16.7,7.59,0.52,2.85,8930 (3350),41700 (5740),1830 (1080),1.36 (0.10),2.93 (0.33),2.30 (0.26),2.00 (0.37),0.063 (0.007) mg/mL,1.80 (0.33),1.22 (0.11),896 (254),3780 (559),122 (88),"Mean (SEM) Soluble Collagen Content in BALF [1]: 0.067 (0.013) mg/mL; Mean (SEM) Ashcroft Score ([2]; Day 21, 5 mg/kg/day IP): 1.92 (0.21); Mean (SEM) Collagen Content in BALF ([2]; Day 21, 5 mg/kg/day IP): 0.071 (0.020) mg/mL; Mean (SEM) Collagen Deposition Score in Lung Tissue ([2]; Day 21, 5 mg/kg/day IP): 1.67 (0.29); Mean (SEM) Normalized Lung Weight ([2]; Day 21, 5 mg/kg/day IP): 1.15 (0.03); Mean (SEM) Number of Lymphocytes in BALF ([2]; Day 21, 5 mg/kg/day IP): 1210 (664); Mean (SEM) Number of Macrophages in BALF ([2]; Day 21, 5 mg/kg/day IP): 5070 (1130); Mean (SEM) Number of Neutrophils in BALF ([2]; Day 21, 5 mg/kg/day IP): 0 (0)"
"RVIRACLGVGLLGDLAGK{PEG12} (RVIRACLGVGLLGDLAGK(PEG12′); also: homodimer, disulfide at Cys6) [SEQ ID NO: 36]",–,–,–,–,–,–,–,–,–,–,–,–,–,3.33 (0.33),0.068 (0.008) mg/mL,2.89 (0.35),1.32 (0.12),884 (442),6430 (930),165 (140),"Mean (SEM) Ashcroft Score ([2]; Day 21, 5 mg/kg/day IP): 2.65 (0.40); Mean (SEM) Collagen Content in BALF ([2]; Day 21, 5 mg/kg/day IP): 0.081 (0.010) mg/mL; Mean (SEM) Collagen Deposition Score in Lung Tissue ([2]; Day 21, 5 mg/kg/day IP): 2.50 (0.37); Mean (SEM) Normalized Lung Weight ([2]; Day 21, 5 mg/kg/day IP): 1.19 (0.06); Mean (SEM) Number of Lymphocytes in BALF ([2]; Day 21, 5 mg/kg/day IP): 987 (316); Mean (SEM) Number of Macrophages in BALF ([2]; Day 21, 5 mg/kg/day IP): 5180 (1030); Mean (SEM) Number of Neutrophils in BALF ([2]; Day 21, 5 mg/kg/day IP): 113 (60)"
"RVIRMCLGVGLLGDLAGK{PEG12} (RVIRMCLGVGLLGDLAGK(PEG12′); also: homodimer, disulfide at Cys6) [SEQ ID NO: 28]",–,–,–,–,–,–,–,–,–,–,–,–,–,2.24 (0.25),0.080 (0.016) mg/mL,2.00 (0.26),1.27 (0.05),1210 (233),6340 (792),261 (117),–
